Columns and labels:
[1] = system: liver and spleen iNKT cells; test: Intracellular cytokine staining of liver and spleen NKT cells after repeated i.v. injections; design: species or system mouse; details: after 5 to 6 i.v. injections every three days; ex vivo and in vitro rechallenge
Procedure: FIG. 2: a Sustained IFNγ production by liver and spleen iNKT cells after several injections of CD1d/anti-HER2 fusion. Liver and spleen lymphocytes were isolated 20 minutes after the sixth injection of either PBS (control, white bar), αGalCer 0.4 μg (grey bar), or αGalCer/CD1d-anti-HER2 fusion protein 40 μg (black bar) and cultured for 1 hour in presence of GOLGI PLUG™ reagent. NKT cells were then stained with anti NK1.1-PE and anti CD3-FITC antibodies, fixed and stained for intracellular IFNγ with anti IFNγ-APC. […] Liver lymphocytes were isolated after 5 injections i.v. of either PBS (Control), αGalCer, αGalCer/CD1d-anti-HER2 fusion protein (Fusion) or αGalCer/sCD1d (sCD1d) and stimulated in vitro for 6 hours in presence of GOLGI PLUG™ as indicated. […]
Isolation of liver, lung and spleen lymphocytes. […] After two washings, cells were either re-challenged or directly analyzed by fluorescence cytometry. […]
Sustained production of IFNγ after repeated i.v. injections: cytokine production was tested by IntraCellular Cytokine Staining (ICCS). […] After fixation and permeabilization with CYTOFIX/CYTOPERM™ (BD), intracellular IFNγ was detected with an APC-labeled anti-IFNγ monoclonal antibody. Cells were analyzed by flow cytometry on a FACS Calibur ([…]™ Software; BD). […]

[2] = system: B16-HER2 melanoma cells; test: Systemic treatment of B16-HER2 lung metastases; format: in vivo, mouse; details: 5 i.v. injections starting 48 hours after tumor graft
Procedure: FIG. 6: In vivo anti tumor activity—Systemic Treatment. a Mice were grafted i.v. with 700.000 B16-HER2 cells and i.v. treatment was started 48 hours later. Mice were injected i.v. 5 times every 2 to 3 days with PBS (control), αGalCer (0.4 μg), αGalCer/sCD1d (sCD1d, 25 μg), or αGalCer/CD1d-anti-HER2 fusion (Fusion, 40 μg). Lung metastases were analysed after 3 weeks by the ImageJ k-means clustering program and expressed as percent metastatic surface over total lung surface. […] Mice were injected i.v. with 700,000 B16-HER2 cells and treatment with PBS (Control), αGalCer, or αGalCer/CD1d-anti-HER2 fusion protein (Fusion) was started 6 days after graft. Mice were treated 3× i.v. every 2-3 days and lung metastases were analyzed after 3 weeks as described above.
Quantification of lung metastasis. Metastatic nodule surface area was measured on 2560×1920 pixels photographs of the whole organs, taken on an Zeiss STEMI SV11 dissection microscope (Carl Zeiss, Jena, Germany) equipped with a PROGRES-C10plus Color Camera (Jenoptik, Jena, Germany). Each image was analyzed with the ImageJ program (rsb.info.nih.gov/ij/) using a k-means clustering algorithm (plugin available on ij-plugins.sourceforge.net). […] The area of the sum of selected color segments was expressed as percentage of the area occupied by the lungs. Both sides of the lung were analyzed. […]

[3] = system: B16 melanoma cells; test: Pretreatment and B16 melanoma lung metastasis; format: in vivo, mouse; details: for Lung metastasis / tumor resistance in pretreated mice: 5 i.v. pretreatments every 3 days, then 700,000 B16 cells co-injected with same agent; for Lung metastasis / tumor development in naïve mice: no pretreatment, agent co-injected with B16 cells
Procedure: FIG. 4: Sustained iNKT activation in vivo due to repeated injections of αGalCer/sCD1d prevents formation of lung metastases. Mice were treated 5 times with PBS (Control, white), αGalCer (0.4 μg, light grey), or αGalCer/sCD1d (sCD1d, 20 μg, black) and then grafted with 700,000 B16 wild type cells plus co-injection of the respective treatment. 2 naive groups were included that had no pretreatment and got only tumor cell graft+co-injection of αGalCer (striped grey) or αGalCer/sCD1d (sCD1d, dark striped grey) respectively. Lung metastases formation was analysed 2 weeks after graft with the ImageJ k-means clustering program and results are expressed as percent of black metastatic surface over total lung surface. P values for αGalCer/sCD1d pretreated and naive+αGalCer groups compared to control *P<0.04, and compared to αGalCer pretreated group *P<0.02.
(§1) Quantification of lung metastasis. Metastatic nodule surface area was measured on 2560×1920 pixels photographs of the whole organs, taken on an Zeiss STEMI SV11 dissection microscope (Carl Zeiss, Jena, Germany) equipped with a PROGRES-C10plus Color Camera (Jenoptik, Jena, Germany). Each image was analyzed with the ImageJ program (rsb.info.nih.gov/ij/) using a k-means clustering algorithm (plugin available on ij-plugins.sourceforge.net). Images were segmented into 9 segments cluster tolerance 1×10−4, randomization seed: 48) and the appropriate segments were selected based on the color of the metastasis reaching the surface of the organ. The area of the sum of selected color segments was expressed as percentage of the area occupied by the lungs. Both sides of the lung were analyzed. This method takes into account both the number and the size of the tumor nodules. Since nodules are often heterogenous the percentage of metastatic lung surface area is a more sensitive measure of tumor growth than just counting tumor nodules.
This is most likely due to the anergic state of iNKT cells induced by free αGalCer. In contrast, in naïve mice, opposite results were obtained. […] The key finding is that multiple prior injections of αGalCer loaded recombinant CD1d molecules but not of free αGalCer confers resistance to tumor development.

[4] = system: B16 wild type cells; test: Precoating experiment, lung metastases of B16 wild type cells; format: in vivo, mouse; details: cells pre-incubated with agent, injected i.v. into naïve mice
Procedure: FIG. 5: Precoating experiment.
as §1
This affect may be caused by a transient association of the αGalCer with the tumor cell surface, or by transient uptake of the free αGalCer.

Molecule	IFNγ production by iNKT cells [1]	Anti tumor effect in words [2]	Lung metastasis / tumor resistance in pretreated mice [3]	Lung metastasis / tumor development in naïve mice [3]	Lung metastases of precoated B16 wild type cells [4]
CCCCCCCCCCCCCCCCCCCCCCCCCC(=O)N[C@@H](CO[C@H]1O[C@H](CO)[C@H](O)[C@H](O)[C@H]1O)[C@H](O)[C@H](O)CCCCCCCCCCCCCC [αGalCer, α-galactosylceramide, reference compound]	only active in naïve (PBS control) mice and has no more effect in αGalCer-treated mice	no significant anti tumor effect	not able to block lung metastasis	completely blocked tumor development	completely inhibited tumor development
αGalCer/sCD1d: soluble monomeric mouse β2m-CD1d, His-tagged, loaded with αGalCer (protein) IQKTPQIQVYSRHPPENGKPNILNCYVTQFHPPHIEIQMLKNGKKIPKVEMSDMSFSKDWSFYILAHTEFTPTETDTYACRVKHASMAEPKTVYWDRDMGGGGSGGSGSGGGSEAQQKNYTFRCLQMSSFANRSWSRTDSVVWLGDLQTHRWSNDSATISFTKPWSQGKLSNQQWEKLQHMFQVYRVSFTRDIQELVKMMSPKEDYPIEIQLSAGCEMYPGNASESFLHVAFQGKYVVRFWGTSWQTVPGAPSWLDLPIKVLNADQGTSATVQMLLNDTCPLFVRGLLEAGKSDLEKQEKPVAWLSSVPSSADGHRQLVCHVSGFYPKPVWVMWMRGDQEQQGTHRGDFLPNADETWYLQATLDVEAGEEAGLACRVKHSSLGGQDIILYWSSGSGGHHHHHH	stimulate iNKT to produce IFNγ following repeated in vivo stimulation with the same material	anti tumor activity which was very variable from mouse to mouse	rendered them resistant to B16 melanoma cells	had no effect	not able to block tumor growth

Reference: patent US9603922B2, “Modulation of NKT cell activity with antigen-loaded CD1d molecules” (VACCINEX, INC., priority 2007, dated 2017)
